{"source": "patent US20250221970A1", "about": "“Combinations of a B-RAF Inhibitor and an Anti-EGFR Antibody for the Treatment of Cancer” (MapKure, LLC, priority 2022, published 2025)", "key": {"[1]": {"test": "Compound A monotherapy clinical study", "type": "in vivo, human"}, "[2]": {"test": "Solid form stability of Form F at long-term and accelerated condition", "type": "physicochemical"}, "[3]": {"test": "Hygroscopicity of the solid form (Form F) of Compound A", "type": "physicochemical", "settings": "at 80% relative humidity (RH)"}, "[4]": {"test_system": "CYP3A", "test": "In vitro metabolism of Compound A", "type": "in vitro ADME", "settings": "in vitro data"}, "[5]": {"test": "Solubility of the solid form (Form F) of Compound A", "type": "physicochemical"}}}
{"smiles": "O=C1CCc2c(Oc3ccc4c(c3)[C@H]3[C@H](NC(=O)Nc5cc(F)c(F)cc5F)[C@H]3O4)ccnc2N1", "note": "[Compound A, 1-((1S,1aS,6bS)-5-((7-oxo-5,6,7,8-tetrahydro-1,8-naphthyridin-4-yl)oxy)-1a,6b-dihydro-1H-cyclopropa[b]benzofuran-1-yl)-3-(2,4,5-trifluorophenyl) urea]", "values": [{"measurement": "MTD (maximum tolerated dose)", "setting": "[1]; Compound A monotherapy, QD", "value": 40, "unit": "mg"}, {"measurement": "Increased incidence of ocular AEs", "setting": "[1]; emerging data from the ongoing Compound A clinical study", "value": "no evidence"}, {"measurement": "Stability: time Form F is in amorphous form", "setting": "[2]; accelerated condition (40° C./75% RH)", "value": "(25° C./60% RH) as well as for 6 months at accelerated condition (40° C./"}, {"measurement": "Stability: time Form F is in amorphous form", "setting": "[2]; long-term condition (25° C./60% RH)", "value": "Form F is in amorphous form for 24 months at long-term condition"}, {"measurement": "Hygroscopicity (classification)", "setting": "[3]", "value": "moderately hygroscopic."}, {"measurement": "Hygroscopicity: moisture absorption", "setting": "[3]; actual moisture of 81.5%", "value": "81.5% and a moisture absorption of about 5.425%; the sample was"}, {"measurement": "Main metabolic pathway", "setting": "[4]", "value": "mainly metabolized by the CYP3A pathway"}, {"measurement": "solubility", "setting": "[5]; 0.1N HCl, simulated gastric fluid, in 0.1N HCI", "value": 240, "unit": "µg/mL"}, {"measurement": "solubility", "setting": "[5]; medium with 0.5% hexadecyl trimethyl ammonium bromide (HTAB), aqueous with cosolvent or surfactant or cyclodextrin, with 0.5% HTAB (hexadecyl trimethyl ammonium bromide)", "value": 310, "unit": "µg/mL"}, {"measurement": "solubility", "setting": "[5]; medium with 1% sodium lauryl sulphate (SLS), aqueous with cosolvent or surfactant or cyclodextrin, with 1% SLS (sodium lauryl sulphate)", "value": 450, "unit": "µg/mL"}, {"measurement": "solubility", "setting": "[5]; pH 4.5 buffer, pH 4.5, aqueous buffer", "value": "< 5", "unit": "µg/mL"}, {"measurement": "solubility", "setting": "[5]; pH 6.8 buffer, pH 6.8, aqueous buffer", "value": "< 5", "unit": "µg/mL"}]}
